Measurements: patent US10966951B2, “Compositions and methods for lowering triglycerides in a subject having reduced kidney function” (Amarin Pharmaceuticals Ireland Limited, priority 2017, dated 2021)

Assays:
[1] = system: patients with reduced kidney function (eGFR<90 mL/min/1.73 m^2) and diabetes mellitus; test: Post-hoc ANCHOR analysis, reduced kidney function and diabetes mellitus (Example 5); format: in vivo, human; conditions: 4 g/day
Method: CVD-related (e.g., atherogenic) parameters were analyzed in a post-hoc study of 198 patients from the multi-center, placebo-controlled, randomized double-blind, 12-week study described in Example 1. These 198 patients have reduced kidney function (e.g., eGFR<90 mL/min/1.73 m^2 for ≥3 months) and diabetes mellitus.
98 patients were randomized to E-EPA and 100 patients were randomized to placebo. In total, atherogenic parameters were analyzed in all 198 patients, 56% of which were male and 97% of which were white. The mean age of the 198 patients was 63 years old.
The primary objective of this post-hoc study was to determine if and how 4 g of daily of >96% E-EPA, compared to placebo, affects patients with reduced kidney function, diabetes mellitus, and high triglyceride levels. The secondary objective was to determine if and how 4 g daily >96% E-EPA, compared to placebo, affected CVD-related parameters in patients having a high risk for CVD and fasting TG levels 200 mg/dL and <500 mg/dL, despite treatment to LDL-C goal on statin therapy. These CVD-parameters include lipid levels, lipoprotein levels, and inflammatory markers, such as TC, LDL-C, HDL-C, vLDL-C, vLDL-TG, RLP-C, non-HDL-C, Apo B, Apo C-III, Lp-PLA, hsCRP, and ox-LDL, and in plasma and RBC EPA concentration. CVD-parameters were analyzed for median difference in percent change from baseline to week 12 in subjects receiving 4 g/day of E-EPA and those receiving the placebo.
The median difference in lipid/lipoprotein, apolipoprotein, and inflammatory parameters were determined from baseline to week 12 for 4/g day of E-EPA compared to placebo.

[2] = system: patients with chronic kidney disease (eGFR<60 mL/min/1.73 m^2); test: Post-hoc ANCHOR analysis, chronic kidney disease: lipid, lipoprotein, oxidation and inflammation parameters (Example 7); format: in vivo, human; conditions: CKD
Method: CVD-related (e.g., atherogenic) parameters were analyzed in a post-hoc study of 55 patients from the multi-center, placebo-controlled, randomized double-blind, 12-week study described in Example 1. These 55 patients have chronic kidney disease (e.g., eGFR<60 mL/min/1.73 m^2 for ≥3 months). There was no lower limit of eGFR specified.
19 patients were randomized to E-EPA and 36 patients were randomized to placebo. One patient in each group discontinued and was excluded from efficacy analyses (but not safety analyses). EPA levels in plasma and RBC were measured in 23 of the 55 patients. These measurements were taken on 7 of the patients randomized to E-EPA and on 16 of the patients that were randomized to the placebo.
The primary objective of this post-hoc study, which is based on an intention to treat, was to determine if and how 4 g daily of >96% E-EPA affects patients with stage 3 chronic kidney disease (e.g., eGFR<60 mL/min/1.73 m^2 for ≥3 months). The secondary objective was to determine if and how 4 g daily of >96% E-EPA, compared to a placebo, affected CVD-related parameters in patients with a high risk of CVD and fasting TG levels ≥[…] and <500 mg/dL, despite LDL-C goal on statin therapy. These CVD-parameters include lipid levels, lipoprotein levels, and inflammatory markers, such as TC, LDL-C, HDL-C, vLDL-C, vLDL-TG, RLP-C, non-HDL-C, Apo B, Apo C-III, Lp-PLA, hsCRP, and ox-LDL, and in plasma and RBC EPA concentration. CVD-parameters were analyzed for median difference in percent change from baseline to week 12 in subjects receiving 4 g/day of E-EPA and those receiving the placebo.
The median difference in percent change from baseline between 4 g/day of E-EPA and placebo for the primary efficacy variable and additional assessments were estimated using the Hodges-Lehmann method (P values from the Wilcoxon rank-sum test for treatment comparisons). Using the Hodges-Lehmann method, departures from normal distribution were observed; for normally distributed parameters, an analysis of covariance model was used with least squares (LS) means and standard errors (SE). Missing values were imputed using the last-observation-carried-forward method. For all post hoc analyses, the alpha for statistical significance was 0.05.

SMILES: CC/C=C\C/C=C\C/C=C\C/C=C\C/C=C\CCCC(=O)OCC [E-EPA, ethyl eicosapentaenoate]
- albumin after 12 weeks ([1]; after 12 weeks): 4.5 g/dL
- serum creatinine after 12 weeks ([1]; after 12 weeks): 0.9 mg/dL
- albumin before treatment ([1]; before the 12 weeks): 4.5 g/dL
- eGFR before treatment ([1]; before the 12 weeks): 75.4 mL/min/1.73 m^2
- serum creatinine before treatment ([1]; before the 12 weeks): 0.9 mg/dL
- VLDL-C Median Difference in % Change From Baseline vs Placebo ([2]; 4 g/day vs placebo, week 12): −26.7%
- hsCRP Median Difference in % Change From Baseline vs Placebo ([2]; 4 g/day vs placebo, week 12, listed as Icosapent Ethyl): −25.0%
- Apo B Baseline ([2]; 4 g/day, baseline): 87.0 mg/dL
- HDL-C Baseline ([2]; 4 g/day, baseline): 35.0 mg/dL
- LDL-C Baseline ([2]; 4 g/day, baseline): 76.0 mg/dL
- VLDL-C Baseline ([2]; 4 g/day, baseline): 42.0 mg/dL
- hsCRP Baseline ([2]; 4 g/day, baseline): 1.9 mg/L
- RLP-C Baseline ([2]; 4 g/day, baseline, n = 9): 17.0 mg/dL
- Apo B Change From Baseline, % ([2]; 4 g/day, week 12): −7.2%
- Apo B End of Treatment ([2]; 4 g/day, week 12): 83.0 mg/dL
- Apo C-III Change From Baseline, % ([2]; 4 g/day, week 12): −7.3%
- HDL-C Change From Baseline, % ([2]; 4 g/day, week 12): 0.9%
- LDL-C Change From Baseline, % ([2]; 4 g/day, week 12): −6.5%
- Lp-PLA2 End of Treatment ([2]; 4 g/day, week 12): 150.0 ng/mL
- Non-HDL-C Change From Baseline, % ([2]; 4 g/day, week 12): −6.4%
- Ox-LDL Change From Baseline, % ([2]; 4 g/day, week 12): −9.5%
- RLP-C End of Treatment ([2]; 4 g/day, week 12): 10.0 mg/dL
- TC Change From Baseline, % ([2]; 4 g/day, week 12): −8.1%
- hsCRP Change From Baseline, % ([2]; 4 g/day, week 12): −16.9%
- hsCRP End of Treatment ([2]; 4 g/day, week 12): 2.1 mg/L
